This is an account of results in patent publication US8664220B2, “Polycyclic compounds as lysophosphatidic acid receptor antagonists” (Amira Pharmaceuticals, Inc., priority 2009, dated 2014).

Usually IC50 stands for the point on the concentration scale where inhibition reaches its midpoint.

Test [1] deals with T1, human LPA1 (Homo sapiens, UniProt Q92633).
T1 construct: the full-length cDNA for human LPA1 was obtained by PCR of the reverse transcription reaction; expressed in transfected cells
T1 sequence (Q92633 whole entry): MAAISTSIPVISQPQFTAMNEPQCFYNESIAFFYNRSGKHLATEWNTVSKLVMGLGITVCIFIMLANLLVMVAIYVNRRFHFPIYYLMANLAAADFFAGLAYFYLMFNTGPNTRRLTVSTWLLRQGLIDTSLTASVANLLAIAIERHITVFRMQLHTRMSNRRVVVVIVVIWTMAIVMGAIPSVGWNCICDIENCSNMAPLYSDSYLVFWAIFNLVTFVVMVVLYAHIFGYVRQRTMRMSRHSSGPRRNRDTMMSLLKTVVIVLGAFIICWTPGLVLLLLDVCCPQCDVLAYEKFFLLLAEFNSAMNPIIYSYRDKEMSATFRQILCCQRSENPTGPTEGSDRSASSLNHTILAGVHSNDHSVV
The experiment in a line: LPA1 calcium flux assay. It counts as cell-based. The note with it: human LPA1 expressing CHO cells, stimulated with 10 nM LPA; read-out: HLPA1 Ca Flux IC50. A digest of the protocol: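 CHO cells stably expressing human LPA1, serum-starved overnight and loaded with Calcium 4 dye in HBSS/20 mM Hepes/0.3% fatty-acid-free HSA, 1 h at 37 °C. Compounds pre-incubated 30 min at room temperature, then 10 nM LPA added; intracellular Ca2+ flux measured and IC50 from titration curves.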

Test [2] relates to A2058 human melanoma cells. The experiment in a line: LPA1 chemotaxis assay. Format: cell-based. The note with it: LPA 100 nM, read-out: IC50, inhibition of LPA-driven chemotaxis. Here is the method: Chemotaxis of the A2058 human melanoma cells was measured using the Neuroprobe ChemoTx® System plates (8 μm pore size, 5.7 mm diameter sites). The filter sites were coated with 0.001% fibronectin (Sigma) in 20 mM Hepes, pH 7.4 and allowed to dry. A2058 cells were serum-starved for 24 hours, then harvested with Cell Stripper and resuspended in DMEM containing 0.1% fatty-acid-free bovine serum albumin (BSA) to a concentration of 1×10^6/ml. Cells were mixed with an equal volume of test compound (2×) in DMEM containing 0.1% fatty-acid-free BSA and incubated at 37° C. for 15 minutes. LPA (100 nM in DMEM containing 0.1% fatty-acid-free BSA) or vehicle was added to each well of the lower chamber and 50 μl of the cell suspension/test compound mix was applied to the upper portion of the ChemoTx plate. Plates were incubated at 37° C. for three hours and then the cells removed from the upper portion by rinsing with PBS and scraping. The filter was dried then stained with HEMA 3 Staining System (Fisher Scientific). The absorbance of the filter was read at 590 nm and IC50s were determined using Symyx Assay Explorer.

Where only a bound is given, the exact number is not on record here.

As for `Cc1noc(-c2ccc(-c3ccc(C4(C(=O)O)CC4)cc3)cc2)c1C(O)c1cn(Cc2ccccc2)nn1` (centres unmarked) [Compound 1-25, 1-(4′-{4-[(1-Benzyl-1H-[1,2,3]triazol-4-yl)-hydroxy-methyl]-3-methyl-isoxazol-5-yl}-biphenyl-4-yl)-cyclopropanecarboxylic acid], the figures for the IC50 in test [1] and in test [2] were under 300 nM and under 100 nM, respectively.
As for `Cc1noc(-c2ccc(-c3ccc(C4(C(=O)O)CC4)cc3)cc2)c1Nc1cccc(-c2cc(F)ccc2F)n1` [Compound 1-148, 1-(4′-{4-[6-(2,5-Difluoro-phenyl)-pyridin-2-ylamino]-3-methyl-isoxazol-5-yl}-biphenyl-4-yl)-cyclopropanecarboxylic acid], the IC50 in test [1] is under 300 nM.
Same read-out and setting: in the case of `Cc1noc(-c2ccc(-c3ccc(C4(C(=O)O)CC4)cc3)cc2)c1Nc1cccc(-c2nn[nH]n2)n1` [Compound 1-149, 1-(4′-{3-Methyl-4-[6-(2H-tetrazol-5-yl)-pyridin-2-ylamino]-isoxazol-5-yl}-biphenyl-4-yl)-cyclopropanecarboxylic acid] it was 1000 to 50000 nM; in that of `Cc1noc(-c2ccc(-c3ccc(C4(C(=O)O)CC4)cc3)cc2)c1Nc1cccc(-c2c(Cl)cccc2Cl)n1` [Compound 1-150, 1-(4′-{4-[6-(2,6-Dichloro-phenyl)-pyridin-2-ylamino]-3-methyl-isoxazol-5-yl}-biphenyl-4-yl)-cyclopropanecarboxylic acid], under 300 nM.
Still for that read-out and setting: the figure for `Cc1noc(-c2ccc(-c3ccc(C4(C(=O)O)CC4)cc3)cc2)c1Nc1cccc(-c2cc(F)ccc2Cl)n1` [Compound 1-151, 1-(4′-{4-[6-(2-Chloro-5-fluoro-phenyl)-pyridin-2-ylamino]-3-methyl-isoxazol-5-yl}-biphenyl-4-yl)-cyclopropanecarboxylic acid] is under 300 nM; for `Cc1noc(-c2ccc(-c3ccc(C4(C(=O)O)CC4)cc3)cc2)c1Nc1cccc(-c2cccc(F)c2F)n1` [Compound 1-152, 1-(4′-{4-[6-(2,3-Difluoro-phenyl)-pyridin-2-ylamino]-3-methyl-isoxazol-5-yl}-biphenyl-4-yl)-cyclopropanecarboxylic acid] it is under 300 nM; for `Cc1noc(-c2ccc(-c3ccc(C4(C(=O)O)CC4)cc3)cc2)c1Nc1cccc(-c2cccc(F)c2Cl)n1` [Compound 1-153, 1-(4′-{4-[6-(2-Chloro-3-fluoro-phenyl)-pyridin-2-ylamino]-3-methyl-isoxazol-5-yl}-biphenyl-4-yl)-cyclopropanecarboxylic acid] it is under 300 nM.
Take `Cc1noc(-c2ccc(-c3ccc(C4(C(=O)O)CC4)cc3)cc2)c1Nc1cccc(OCC2CC2)n1` [Compound 1-154, 1-{4′-[4-(6-Cyclopropylmethoxy-pyridin-2-ylamino)-3-methyl-isoxazol-5-yl]-biphenyl-4-yl}-cyclopropanecarboxylic acid]: the IC50 in test [1] is under 300 nM.
The same measure, in the same setting: in the case of `Cc1noc(-c2ccc(-c3ccc(C4(C(=O)O)CC4)cc3)cc2)c1Nc1cncc(-c2cccc(F)c2Cl)c1` [Compound 1-155, 1-(4′-{4-[5-(2-Chloro-3-fluoro-phenyl)-pyridin-3-ylamino]-3-methyl-isoxazol-5-yl}-biphenyl-4-yl)-cyclopropanecarboxylic acid] it was under 300 nM; in that of `Cc1noc(-c2ccc(-c3ccc(C4(C(=O)O)CC4)cc3)cc2)c1Nc1cccc(-c2cccc(F)c2C)n1` [Compound 1-156, 1-(4′-{4-[6-(3-Fluoro-2-methyl-phenyl)-pyridin-2-ylamino]-3-methyl-isoxazol-5-yl}-biphenyl-4-yl)-cyclopropanecarboxylic acid], under 300 nM.
On to `Cc1noc(-c2ccc(-c3ccc(C4(C(=O)O)CC4)cc3)cc2)c1Nc1cccc(-c2cccc(C(F)(F)F)c2Cl)n1` [Compound 1-157, 1-(4′-{4-[6-(2-Chloro-3-trifluoromethyl-phenyl)-pyridin-2-ylamino]-3-methyl-isoxazol-5-yl}-biphenyl-4-yl)-cyclopropanecarboxylic acid], for which the IC50 in test [1] is under 300 nM.
`Cc1noc(-c2ccc(-c3ccc(C4(C(=O)O)CC4)cc3)cc2)c1Nc1cccc(-c2cccc(Cl)c2Cl)n1` [Compound 1-158, 1-(4′-{4-[6-(2,3-Dichloro-phenyl)-pyridin-2-ylamino]-3-methyl-isoxazol-5-yl}-biphenyl-4-yl)-cyclopropanecarboxylic acid]: the IC50 in test [1] is under 300 nM.
In the case of `COc1c(F)cccc1-c1cccc(Nc2c(C)noc2-c2ccc(-c3ccc(C4(C(=O)O)CC4)cc3)cc2)n1` [Compound 1-159, 1-(4′-{4-[6-(3-Fluoro-2-methoxy-phenyl)-pyridin-2-ylamino]-3-methyl-isoxazol-5-yl}-biphenyl-4-yl)-cyclopropanecarboxylic acid], the half-maximal inhibitory concentration (IC50) in test [1] was under 300 nM.
Still for that read-out and setting: in the case of `Cc1noc(-c2ccc(-c3ccc(C4(C(=O)O)CC4)cc3)cc2)c1Nc1cncc(-c2cccc(Cl)c2)c1` [Compound 1-160, 1-(4′-{4-[5-(3-Chloro-phenyl)-pyridin-3-ylamino]-3-methyl-isoxazol-5-yl}-biphenyl-4-yl)-cyclopropanecarboxylic acid] it was under 300 nM; in that of `Cc1noc(-c2ccc(-c3ccc(C4(C(=O)O)CC4)cc3)cc2)c1Nc1cncc(-c2cc(F)ccc2F)c1` [Compound 1-161, 1-(4′-{4-[5-(2,5-Difluoro-phenyl)-pyridin-3-ylamino]-3-methyl-isoxazol-5-yl}-biphenyl-4-yl)-cyclopropanecarboxylic acid], under 300 nM.
Turning to `Cc1noc(-c2ccc(-c3ccc(C4(C(=O)O)CC4)cc3)cc2)c1Nc1cccc(-c2cccc(Cl)c2)n1` [Compound 1-162, 1-(4′-{4-[6-(3-Chloro-phenyl)-pyridin-2-ylamino]-3-methyl-isoxazol-5-yl}-biphenyl-4-yl)-cyclopropanecarboxylic acid], in test [1], the IC50 is under 300 nM.
As to `CCc1noc(-c2ccc(-c3ccc(C4(C(=O)O)CC4)cc3)cc2)c1Nc1cccc(-c2ccccc2)n1` [Compound 2-1, 1-{4′-[3-Ethyl-4-(6-phenyl-pyridin-2-ylamino)-isoxazol-5-yl]-biphenyl-4-yl}-cyclopropanecarboxylic acid], the IC50 in test [1] was under 300 nM.
Still for that read-out and setting: the figure for `CCc1noc(-c2ccc(-c3ccc(C4(C(=O)O)CC4)cc3)cc2)c1Nc1nnc(-c2ccccc2)o1` [Compound 2-2, 1-{4′-[3-Ethyl-4-(5-phenyl-[1,3,4]oxadiazol-2-ylamino)-isoxazol-5-yl]-biphenyl-4-yl}-cyclopropanecarboxylic acid] is under 300 nM.
The same measure, in the same setting: in the case of `Cc1noc(-c2ccc(-c3ccc(C4(C(=O)NS(C)(=O)=O)CC4)cc3)cc2)c1C(O)c1cn(Cc2cccc(C(F)(F)F)c2)nn1` (centres unmarked) [Compound 3-3, N-{1-[4′-(4-{Hydroxy-[1-(3-trifluoromethyl-benzyl)-1H-[1,2,3]triazol-4-yl]-methyl}-3-methyl-isoxazol-5-yl)-biphenyl-4-yl]-cyclopropanecarbonyl}-methanesulfonamide] it was 1000 to 50000 nM; in that of `Cc1noc(-c2ccc(-c3ccc(C4(C(=O)NS(C)(=O)=O)CC4)cc3)cc2)c1Nc1nnc(-c2ccccc2)o1` [Compound 3-4, N-(1-{4′-[3-Methyl-4-(5-phenyl-[1,3,4]oxadiazol-2-ylamino)-isoxazol-5-yl]-biphenyl-4-yl}-cyclopropanecarbonyl)-methanesulfonamide], under 300 nM; in that of `Cc1noc(-c2ccc(-c3ccc(C4(C(=O)NS(C)(=O)=O)CC4)cc3)cc2)c1Nc1cccc(Cc2ccccc2)n1` [Compound 3-5, N-(1-{4′-[4-(6-Benzyl-pyridin-2-ylamino)-3-methyl-isoxazol-5-yl]-biphenyl-4-yl}-cyclopropanecarbonyl)-methanesulfonamide], under 300 nM.
On the same count and under the same terms, in the case of `Cc1noc(-c2ccc(-c3ccc(C4(C(=O)NS(C)(=O)=O)CC4)cc3)cc2)c1Nc1cccc(-c2ccccc2)n1` [Compound 3-6, N-(1-{4′-[3-Methyl-4-(6-phenyl-pyridin-2-ylamino)-isoxazol-5-yl]-biphenyl-4-yl}-cyclopropanecarbonyl)-methanesulfonamide] it was under 300 nM.
